# pKd: −log10 of the molar value.
# Experiments:
# non-cardiac myosin II = conditions: cited from earlier work
# liver cells = conditions: in vitro; cited from earlier work
# late-stage PKD organoids = test: Regression of pre-existing cysts in late-stage PKD organoids; format: cell-based, human; conditions: one week
# Source text: Reduction of pre-existing cysts would be a major advantage over tolvaptan. In an acute setting, EMD could be used to reduce pain from swollen cysts, and in a chronic setting it could potentially reverse the course of disease.
# β-cardiac myosin = β-cardiac myosin (Homo sapiens, UniProt P12883); conditions: read-out: AC50, actomyosin ATPase activity; cited from earlier work
# Chain of β-cardiac myosin (P12883 whole entry): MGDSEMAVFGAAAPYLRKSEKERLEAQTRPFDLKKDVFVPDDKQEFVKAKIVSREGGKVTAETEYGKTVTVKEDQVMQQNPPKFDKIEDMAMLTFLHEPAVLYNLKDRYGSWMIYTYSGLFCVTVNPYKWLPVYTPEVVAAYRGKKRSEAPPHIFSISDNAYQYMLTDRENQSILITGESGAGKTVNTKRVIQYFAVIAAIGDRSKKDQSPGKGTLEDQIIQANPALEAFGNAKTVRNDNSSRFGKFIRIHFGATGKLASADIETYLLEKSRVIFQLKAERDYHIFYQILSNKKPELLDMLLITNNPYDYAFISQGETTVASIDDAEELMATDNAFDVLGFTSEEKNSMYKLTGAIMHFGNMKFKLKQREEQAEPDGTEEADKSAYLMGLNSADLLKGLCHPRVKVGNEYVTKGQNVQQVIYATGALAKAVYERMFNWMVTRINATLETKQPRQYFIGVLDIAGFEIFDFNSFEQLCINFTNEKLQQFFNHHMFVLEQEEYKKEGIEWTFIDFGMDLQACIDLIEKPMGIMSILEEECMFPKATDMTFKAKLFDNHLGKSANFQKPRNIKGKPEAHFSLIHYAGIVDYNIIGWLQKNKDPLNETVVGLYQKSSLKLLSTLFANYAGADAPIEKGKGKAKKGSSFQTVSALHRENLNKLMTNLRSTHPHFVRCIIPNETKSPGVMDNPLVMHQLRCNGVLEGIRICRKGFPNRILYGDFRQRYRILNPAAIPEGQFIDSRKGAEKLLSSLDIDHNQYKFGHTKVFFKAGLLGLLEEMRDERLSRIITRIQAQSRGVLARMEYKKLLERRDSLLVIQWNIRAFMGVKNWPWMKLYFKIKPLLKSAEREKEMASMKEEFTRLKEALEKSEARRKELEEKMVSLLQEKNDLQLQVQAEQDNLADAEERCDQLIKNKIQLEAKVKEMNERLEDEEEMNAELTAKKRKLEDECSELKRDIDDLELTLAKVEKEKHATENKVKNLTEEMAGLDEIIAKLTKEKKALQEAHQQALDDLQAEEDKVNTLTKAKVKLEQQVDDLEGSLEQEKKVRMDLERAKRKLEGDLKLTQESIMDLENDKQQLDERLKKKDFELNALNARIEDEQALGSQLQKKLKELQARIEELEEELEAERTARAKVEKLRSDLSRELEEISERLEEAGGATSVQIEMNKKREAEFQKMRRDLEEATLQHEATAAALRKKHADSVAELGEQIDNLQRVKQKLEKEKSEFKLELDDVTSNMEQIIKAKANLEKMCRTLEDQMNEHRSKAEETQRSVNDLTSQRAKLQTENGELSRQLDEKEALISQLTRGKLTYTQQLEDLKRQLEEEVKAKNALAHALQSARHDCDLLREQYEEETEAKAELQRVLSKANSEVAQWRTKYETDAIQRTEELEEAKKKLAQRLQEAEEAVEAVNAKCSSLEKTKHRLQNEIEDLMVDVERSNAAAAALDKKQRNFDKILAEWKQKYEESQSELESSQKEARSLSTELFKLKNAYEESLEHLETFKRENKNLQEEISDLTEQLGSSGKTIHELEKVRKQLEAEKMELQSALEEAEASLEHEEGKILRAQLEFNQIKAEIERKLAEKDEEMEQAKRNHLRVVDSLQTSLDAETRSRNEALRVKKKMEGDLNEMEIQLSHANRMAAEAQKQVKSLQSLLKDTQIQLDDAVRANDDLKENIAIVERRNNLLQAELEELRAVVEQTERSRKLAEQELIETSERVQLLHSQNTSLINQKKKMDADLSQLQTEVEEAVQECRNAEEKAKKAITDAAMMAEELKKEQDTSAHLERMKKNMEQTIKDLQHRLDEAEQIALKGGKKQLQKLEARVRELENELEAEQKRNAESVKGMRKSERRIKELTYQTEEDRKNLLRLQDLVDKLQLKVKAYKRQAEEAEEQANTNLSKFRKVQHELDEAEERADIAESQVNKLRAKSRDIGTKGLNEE
# Chain of β-cardiac myosin (P08590 whole entry partner): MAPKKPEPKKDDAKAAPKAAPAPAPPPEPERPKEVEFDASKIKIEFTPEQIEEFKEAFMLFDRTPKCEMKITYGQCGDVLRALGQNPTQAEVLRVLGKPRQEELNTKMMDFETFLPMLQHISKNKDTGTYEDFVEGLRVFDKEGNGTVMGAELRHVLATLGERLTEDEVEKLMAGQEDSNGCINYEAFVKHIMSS
# myosin = conditions: Table 5 listing; cited from earlier work
# [1] = canines, orally administered, optimized for dissolution; cited from earlier work
# [2] = cited from earlier work
# PKD1RC/RC mouse = test: EMD pilot trial in PKD1RC/RC mouse; format: in vivo; conditions: for survival, distress and adverse effects: 5 mg/kg
# Protocol: Efficacy In Vivo: To reproduce EMD's effects in an animal model, small pilot trial was performed in the PKD1RC/RC mouse. Animals at five months of age, a time point where cysts have already formed, were injected intraperitoneally with EMD four times over 2.5 weeks (FIG. 24A). EMD was dissolved in 400 μL PBS solution at 5 mg/kg (˜25 μM in mouse blood).
# These animals were sacrificed and analyzed their kidney tissue.
# [3] = system: PKD1−/− and PKD2−/− mutant organoids; test: Prophylactic effect of myosin activators on cyst formation in PKD organoids in suspension; format: cell-based, human
# Source text: Cyst formation. In adherent cultures (untreated), ‘cysts’ were identified as large, balloon-like, translucent structures that swayed in response to agitation. Flat rings and dilated tubules were not counted as cysts and occasionally appeared even in non-PKD controls. […] Wells were imaged using a Nikon TiE inverted wide-field microscope and cysts were quantified using ImageJ cell counter. To generate large cysts in suspension, adherent organoids were microdissected with a 23-gauge syringe needle from 24-well plates on an inverted phase-contrast microscope, and carefully transferred using a transfer pipette into a low-adhesion 6-well plate (Corning) containing 2 ml RB. The organoids were isolated on the twenty-first day of differentiation, before cysts formed. RB media was changed by gravity every three days, and cystogenesis was assessed at two weeks after replating.
# EMD was efficient at rescuing cyst formation at the lowest dose tested (3 μM) and worked in both PKD1^−/− and PKD2^−/− mutant organoids.
# myosin motor domain = conditions: allosteric pocket of the myosin motor domain; cited from earlier work
# skeletal muscle myosin = conditions: read-out: AC50, actomyosin ATPase activity; cited from earlier work
# PKD organoids = test: Live-dead viability analysis of PKD organoids after EMD treatment; format: cell-based, human; conditions: 10 μM for two weeks
# Protocol: To assess potential toxicity in human organoids, morphology was examined by phase-contrast microscopy during the treatment time course and performed a live-dead analysis of organoids at the endpoint of treatment (10 μM EMD for two weeks).
# [4] = 5 mg/kg intraperitoneally, four times over 2.5 weeks
# [5] = expected value, WT control or EMD, Aim 1
# [6] = high dose (5 mg/kg) applied repeatedly
smiles,measurement,setting,value
"COc1ccc(C(=O)N2CCCc3cc(C4=NNC(=O)SC4C)ccc32)cc1OC (single isomer, unassigned; (+)) [EMD, (+)-5-(1-(3,4-Dimethoxybenzoyl)-1,2,3,4-tetrahydroquinolin-6-yl)-6-methyl-3,6-dihydro-2H-1,3,4-thiadiazin-2-one]",increase of non-cardiac myosin II activity,non-cardiac myosin II,three-fold
same,metabolism by liver cells,liver cells,metabolized by liver cells into demethylated and/or hydroxylated forms by CYP-dependent mechanisms
same,size of pre-formed cysts,"late-stage PKD organoids; late-stage PKD organoids (day 37), 5 μM",acute reduction in the size of pre-formed cysts
same,toxicity at these doses,late-stage PKD organoids; late-stage PKD organoids,No overt toxicity
same,AC50,β-cardiac myosin,7 µM
same,effect,myosin,↑ myosin
same,Tmax,[1],~2.5 h
same,average Cmax,[1],~40 ng/mL
same,aqueous solubility,[2],5 µg/mL
same,blood urea nitrogen levels (BUN),PKD1RC/RC mouse; [4],reduced
same,kidney weight,PKD1RC/RC mouse; [4],reduced
same,superficial (renal cortical) cysts by gross morphology,"PKD1RC/RC mouse; 5 mg/kg intraperitoneally, four times over 2.5 weeks, five months of age",noticeably reduced superficial (renal cortical) cysts
same,BUN,PKD1RC/RC mouse; [5],20 ± 5 mg/dL
same,kidney weight,PKD1RC/RC mouse; [5],0.30 ± 0.1 g
same,alpha-SMA+ area (%),"PKD1RC/RC mouse; expected value, WT control or EMD, Aim 2",25 ± 4%
same,fibrosis in the kidneys,PKD1RC/RC mouse; [6],No fibrosis was observed
same,"survival, distress and adverse effects",PKD1RC/RC mouse; [6],no adverse effects or mortality
same,"survival, distress and adverse effects","PKD1RC/RC mouse; mouse, in vivo","all animals survived, and none showed any signs of distress"
same,"acute tubular necrosis, proximal tubules (LTL+)",PKD1RC/RC mouse; treated kidneys,no evidence of acute tubular necrosis
same,cyst size in kidney sections,PKD1RC/RC mouse; treated kidneys,smaller cysts
same,expression of smooth muscle alpha-actin,PKD1RC/RC mouse; treated kidneys,reduced expression
same,"lowest dose tested, efficient at rescuing cyst formation",[3]; PKD1−/− and PKD2−/− mutant organoids,3 µM
same,Cyst diameter (mm),[3]; [5],0.12 ± 0.04 mm
same,Cystic organoids (%),[3]; [5],15 ± 6%
same,formation and size of resultant cysts,"[3]; pre-cystic organoids in suspension, versus untreated controls",effectively reduced the formation and size of the resultant cysts
same,efficacy on cysts in the presence of blebbistatin,[3]; with blebbistatin,effective even in the presence of blebbistatin
same,pKd,myosin motor domain,5.14
same,AC50,skeletal muscle myosin,15.1 µM
same,toxicity (phase-contrast morphology and live-dead analysis),PKD organoids,no significant toxicity

# From patent publication US12320800B2, “High-throughput automation of organoids for identifying therapeutic strategies” (UNIVERSITY OF WASHINGTON, priority 2018, dated 2025)
